≈ marks a conversion by molar mass, not a printed value.

These results are taken from paper PMC10648927, “Examining the activity of cefepime-taniborbactam against Burkholderia cepacia complex and Burkholderia gladioli isolated from cystic fibrosis patients in the United States” (Antimicrobial Agents and Chemotherapy, 2023).

What all share (experiment): microbe, parasite or virus in culture
Parameters in all cases: agar dilution MIC, growth inhibition of clinical Burkholderia isolates

The test system of test [1] is T1, B. ambifaria AU5203.
T1 construct: AU5203
As to conditions: Burkholderia ambifaria, AU5203. A digest of the protocol:
(§1)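 MICs by agar dilution against Bcc and B. gladioli clinical isolates, interpreted with CLSI breakpoints where available; K. pneumoniae ATCC 700603 (SHV-18) and ATCC BAA-1705 (KPC) served as quality controls.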

Test [2] relates to T2, B. cenocepacia AU16448.
T2 construct: AU16448
As to conditions: Burkholderia cenocepacia, AU16448. The procedure, abridged: as §1

The test system of test [3] is T3, B. cenocepacia AU20998.
T3 construct: AU20998
The note with it: Burkholderia cenocepacia, AU20998. The procedure, abridged:
as §1

For test [4], the system named is T4, B. cenocepacia AU29265.
T4 construct: AU29265
As to conditions: Burkholderia cenocepacia, AU29265. The procedure, abridged: as §1

Test [5] deals with T5, B. cenocepacia AU8635.
T5 construct: AU8635
The note with it: Burkholderia cenocepacia, AU8635. The procedure, abridged:
as §1

Test [6] relates to T6, B. cenocepacia AU9710.
T6 construct: AU9710
The note with it: Burkholderia cenocepacia, AU9710. A digest of the protocol: as §1

Test [7] deals with T7, B. cepacia AU11420.
T7 construct: AU11420
As to conditions: Burkholderia cepacia, AU11420. A digest of the protocol:
as §1

Test [8] deals with T8, B. cepacia AU1555.
T8 construct: AU1555
The note with it: Burkholderia cepacia, AU1555. The procedure, abridged: as §1

The subject of test [9] is T9, B. cepacia AU19265.
T9 construct: AU19265
As to conditions: Burkholderia cepacia, AU19265. The procedure, abridged: as §1

In test [10] the test system is T10, B. multivorans AU10398.
T10 construct: AU10398
The note with it: Burkholderia multivorans, AU10398. A digest of the protocol:
as §1

For test [11], the system named is T11, B. multivorans AU11772.
T11 construct: AU11772
As to conditions: Burkholderia multivorans, AU11772. A digest of the protocol:
as §1

The subject of test [12] is T12, B. multivorans AU12481.
T12 construct: AU12481
As to conditions: Burkholderia multivorans, AU12481. The procedure, abridged: as §1

The subject of test [13] is T13, B. multivorans AU14371.
T13 construct: AU14371
As to conditions: Burkholderia multivorans, AU14371. The procedure, abridged:
as §1

Test [14] has as its system T14, B. multivorans AU15954.
T14 construct: AU15954
As to conditions: Burkholderia multivorans, AU15954. The procedure, abridged: as §1

In test [15] the test system is T15, B. multivorans AU21596.
T15 construct: AU21596
As to conditions: Burkholderia multivorans, AU21596. The procedure, abridged:
as §1

Test [16] has as its system T16, B. multivorans AU22892.
T16 construct: AU22892
As to conditions: Burkholderia multivorans, AU22892. A digest of the protocol: as §1

Test [17] has as its system T17, B. vietnamiensis AU28891.
T17 construct: AU28891
As to conditions: Burkholderia vietnamiensis, AU28891. The procedure, abridged: as §1

The test system of test [18] is T18, B. vietnamiensis AU3578.
T18 construct: AU3578
The note with it: Burkholderia vietnamiensis, AU3578. A digest of the protocol:
as §1

For test [19], the system named is T19, B. vietnamiensis AU3997.
T19 construct: AU3997
As to conditions: Burkholderia vietnamiensis, AU3997. A digest of the protocol:
as §1

Test [20] deals with T20, Burkholderia cepacia complex Bcc Indeterminate AU12848.
T20 construct: AU12848
As to conditions: Burkholderia cepacia. The procedure, abridged: as §1

For test [21], the system named is T21, Burkholderia cepacia complex Bcc Indeterminate AU14962.
T21 construct: AU14962
As to conditions: Burkholderia cepacia. The procedure, abridged:
as §1

Test [22] relates to T22, Burkholderia cepacia complex Bcc Indeterminate AU18117.
T22 construct: AU18117
The note with it: Burkholderia cepacia. A digest of the protocol:
as §1

For the molecule `CO/N=C(\C(=O)N[C@@H]1C(=O)N2C(C(=O)[O-])=C(C[N+]3(C)CCCC3)CS[C@H]12)c1csc(N)n1` [cefepime], the MIC in [1] was 16 µg/mL (≈ 33.3 µM); in test [2], 16 µg/mL (≈ 33.3 µM); in [3] it was more than 32 µg/mL; in test [4] it was 16 µg/mL (≈ 33.3 µM); in [5], more than 32 µg/mL; in test [6], 16 µg/mL (≈ 33.3 µM). Also, the MIC is more than 32 µg/mL in [7]; more than 32 µg/mL in [8]; 32 µg/mL (≈ 66.6 µM) in test [9]; more than 32 µg/mL in test [10]; more than 32 µg/mL in test [11]; 2 µg/mL (≈ 4.16 µM) in test [12]. Moreover, the MIC in [13] was 8 µg/mL (≈ 16.6 µM); in [14] it was 8 µg/mL (≈ 16.6 µM); in test [15], more than 32 µg/mL; in [16], 2 µg/mL (≈ 4.16 µM); in [17], 8 µg/mL (≈ 16.6 µM); in test [18] it was more than 32 µg/mL. For the same molecule, the MIC in test [19] was 8 µg/mL (≈ 16.6 µM); in [20], more than 32 µg/mL; in [21], more than 32 µg/mL; in [22] it was more than 32 µg/mL.

Regarding `C[C@H]1COc2c(N3CCN(C)CC3)c(F)cc3c(=O)c(C(=O)O)cn1c23` [levofloxacin], the MIC in test [1] was more than 32 µg/mL; in [2] it was 8 µg/mL (≈ 22.1 µM); in test [3] it was more than 32 µg/mL; in test [4], 2 µg/mL (≈ 5.53 µM); in test [5] it was more than 32 µg/mL; in test [6] it was 4 µg/mL (≈ 11.1 µM). Moreover, the MIC in [7] was 4 µg/mL (≈ 11.1 µM); in test [8], 16 µg/mL (≈ 44.3 µM); in test [9], 4 µg/mL (≈ 11.1 µM); in [10], 16 µg/mL (≈ 44.3 µM); in test [11], 8 µg/mL (≈ 22.1 µM); in [12], 4 µg/mL (≈ 11.1 µM). The MIC in [13] is 2 µg/mL (≈ 5.53 µM); in [14], 2 µg/mL (≈ 5.53 µM); in test [15], more than 32 µg/mL; in test [16], 2 µg/mL (≈ 5.53 µM); in test [17], 8 µg/mL (≈ 22.1 µM); in [18], 8 µg/mL (≈ 22.1 µM). Moreover, the MIC in test [19] is 8 µg/mL (≈ 22.1 µM); in test [20], 8 µg/mL (≈ 22.1 µM); in test [21], 2 µg/mL (≈ 5.53 µM); in [22], more than 32 µg/mL.

In the case of `C[C@@H](O)[C@H]1C(=O)N2C(C(=O)O)=C(S[C@@H]3CN[C@H](C(=O)N(C)C)C3)[C@H](C)[C@H]12` [meropenem], the MIC in test [1] worked out at 4 µg/mL (≈ 10.4 µM); in [2] it was 4 µg/mL (≈ 10.4 µM); in test [3], 8 µg/mL (≈ 20.9 µM); in test [4] it was 2 µg/mL (≈ 5.22 µM); in test [5] it was 16 µg/mL (≈ 41.7 µM); in [6] it was 4 µg/mL (≈ 10.4 µM). Further, the MIC in test [7] was 8 µg/mL (≈ 20.9 µM); in [8] it was 8 µg/mL (≈ 20.9 µM); in test [9] it was 4 µg/mL (≈ 10.4 µM); in test [10], 8 µg/mL (≈ 20.9 µM); in [11], 16 µg/mL (≈ 41.7 µM); in test [12] it was 2 µg/mL (≈ 5.22 µM). Also, the MIC stood at 4 µg/mL (≈ 10.4 µM) in test [13]; 4 µg/mL (≈ 10.4 µM) in [14]; 32 µg/mL (≈ 83.4 µM) in [15]; 4 µg/mL (≈ 10.4 µM) in test [16]; 2 µg/mL (≈ 5.22 µM) in [17]; 4 µg/mL (≈ 10.4 µM) in test [18]. The MIC came out at 1 µg/mL (≈ 2.61 µM) in test [19], 8 µg/mL (≈ 20.9 µM) in test [20], 8 µg/mL (≈ 20.9 µM) in [21] and 8 µg/mL (≈ 20.9 µM) in [22].
